Measured values as given in US8609836B2, “4-aryl-2-anilino-pyrimidines” (Janssen Pharmaceutica NV, priority 2008, dated 2013).

Experiments:
[1] = system: H1299; assay: Cellular proliferation assay (Alamar blue), H1299; assay type: cell-based; settings: Homo sapiens, NCI-H1299; 10% FCS; 72 hours with compound; Alamar blue 4 h
Procedure: (§1) […] functional properties of these compounds were tested in cellular proliferation assays on a panel of different cell lines in the presence of 10% FCS serum (37° C. and 5% (v/v) CO2). In a first step these cells were seeded and incubated for 24 hours in the absence of compound. In the second step the cells were incubated for 72 hours with the compounds to be tested for 72 hours. The viable cell number was finally assessed in a standard Alamar blue cell viability assay.
(§2) The viable cell number was assessed by incubation for either 4 h (HCT-116, H1299) 6 h (U87-MG) or 24 h (A2780, MDA-MB-231) with Alamar blue (Resazurin 9 μg/ml, K-Ferrocyanide 90 μM, K-Ferricyanide 90 μM) and the converted fluorescent product was quantified on a fluorescent plate reader (544 nm/590 nm). Effect of the compounds is calculated as of on control cells.

[2] = biological target: PLK1 T210D (h) (Homo sapiens, UniProt P53350, T210D); assay: PLK1 human kinase inhibition, SPA; assay type: biochemical; settings: read-out: PLK1 pIC50 (converted)
Procedure: (§3) The in vitro inhibition of a panel of kinases was assessed using either the scintillation proximity assay (SPA) as described by Cook, N. D. et al., Advances in Experimental Medicine and Biology (1991), 36; p. 525-528.
(§4) In the SPA technology the activity of the kinase of interest is measured using an appropriate biotinylated substrate that is incubated with the aforementioned kinase protein in the presence of (^33P) radiolabeled ATP. (^33P) Phosphorylation of the substrate is subsequently measured through binding of the phosphorylated substrate to streptavidine coated beads that are based on the scintillant poly(vinyl toluene) (PVT-Beads). The scintillation intensity is detected by imaging on Leadseeker.
(§5) All kinases are pre-diluted to a 10× working concentration prior to addition into the assay. The composition of the dilution buffer for each kinase is detailed below.
In a final reaction volume of 30 μl, PLK1 T210D (h) (0.125 ng/ml) is incubated with 50 mM Hepes pH 8.0, 2 mM MnCl2, 1 mM DTT, 2 μM of peptide Biotin-Tds linker-[…], 0.1 μM ATP and 2 nM [γ-^33P-ATP] (6.0 μCi/ml). After incubation of 40 minutes at room temperature, the reaction is stopped by addition of 40 μL of stop solution containing 8.7 mM EDTA, BSA 0.17%, 0.17% Triton X-100, 25 mg/ml SPA beads (GE-healthcare). The plate is centrifuged and read for Scintillation imaging on Leadseeker.

[3] = biological target: CDK1/CyclinB (h) (Homo sapiens, UniProt P06493); assay: CDK1/CyclinB human kinase inhibition, Invitrogen's FRET assay (Z'lyte); assay type: biochemical; settings: read-out: CDK1 pIC50 (converted)
Procedure: as §3, §5
In a final reaction volume of 10 μl, CDK1/CyclinB (h) (0.2 μg/ml) is incubated with 50 mM Hepes pH 7.5, 10 mM MgCl2, 1 mM EGTA, 0.01% Brij-35, 2 μM Z'lyte Ser/Thr peptide 12 and 10 μM ATP (Invitrogen's FRET assay). After incubation of 60 minutes at room temperature, the reaction is stopped by addition of 5 μL development reagent containing protease mix. After 60 minutes room temperature the development reaction is stopped by adding 5 μl stop solution. The plate is then read in fluorescence plate reader with excitation: 390 nm and dual emission: 460 and 538 nm. Emission ratio is determined to the formula=Emission signal intensity at 460 nm/Emission signal intensity at 538 nm.

[4] = system: U87-MG; assay: Cellular proliferation assay (Alamar blue), U87-MG; assay type: cell-based; settings: Homo sapiens, U-87 MG; 10% FCS; 72 hours with compound; Alamar blue 6 h; read-out: U87-MG (cellular proliferation assay, Table 4) (converted)
Procedure: as §1, §2

[5] = biological target: PLK3 (h) (Homo sapiens, UniProt Q9H4B4); assay: PLK3 human kinase inhibition, SPA; assay type: biochemical; settings: read-out: PLK3 pIC50 (converted)
Procedure: as §3, §4, §5
(§6) In a final reaction volume of 30 μl, PLK3 (h) (30 μg/ml) is incubated with 50 mM Hepes pH 8.0, 2 mM MnCl2, 1 mM DTT, 2 μM of peptide Biotin-Tds linker-[…], 0.1 μM ATP and 2 nM [γ-^33P-ATP] (6.0 μCi/ml). After incubation of 20 minutes at room temperature, the reaction is stopped by addition of 40 μL of stop solution containing 8.7 mM EDTA, BSA 0.17%, 0.17% Triton X-100, 25 mg/ml SPA beads (GE-healthcare). The plate is centrifuged and read for Scintillation imaging on Leadseeker.

[6] = biological target: AuroraB (h) (Homo sapiens, UniProt Q96GD4); assay: Aurora-B human kinase inhibition, SPA; assay type: biochemical; settings: read-out: AuroraB pIC50 (converted)
Procedure: as §3, §4, §5
In a final reaction volume of 30 μl, AuroraB (h) (0.5 μg/ml) is incubated with 60 mM Hepes pH 7.5, 3 mM MgCl2, 3 mM MnCl2, 3 μM Na3VO4, 0.05 mg/ml PEG, 2 mM DTT, 3 μM Biotin-[…]-OH, 0.5 μM ATP and 2.2 nM [γ-^33P-ATP] (6.8 μCi/ml). After incubation of 60 minutes at room temperature, the reaction is stopped by addition of 40 μL of stop solution containing 8.7 mM EDTA, BSA 0.17%, 0.17% Triton X-100, 5 mg/ml SPA beads (GE-healthcare). The plate is centrifuged and read for Scintillation imaging on Leadseeker.

[7] = biological target: GSK3β (h) (Homo sapiens, UniProt P49841); assay: GSK-3β human kinase inhibition, SPA; assay type: biochemical; settings: read-out: GSK3b pIC50 (converted)
Procedure: as §3, §4, §5
In a final reaction volume of 30 μl, GSK3β (h) (1 μg/ml) is incubated with 25 mM Tris pH 7.4, 10 mM MgCl2, 1 mM DTT, 1 μM peptide Biotin-[…]-OH, 1 μM ATP and 2 nM [γ-^33P-ATP] (6.0 μCi/ml). After incubation of 60 minutes at room temperature, the reaction is stopped by addition of 40 μL of stop solution containing 8.7 mM EDTA, BSA 0.17%, 0.17% Triton X-100, 6.25 mg/ml SPA beads (GE-healthcare). The plate is centrifuged and read for Scintillation imaging on Leadseeker.

[8] = system: A2780; assay: Cellular proliferation assay (Alamar blue), A2780; assay type: cell-based; settings: Homo sapiens, 10% FCS, 72 hours with compound, Alamar blue 24 h, read-out: A2780 (cellular proliferation assay, Table 4) (converted)
Procedure: as §1, §2

[9] = system: HCT-116; assay: Cellular proliferation assay (Alamar blue), HCT-116; assay type: cell-based; settings: Homo sapiens, 10% FCS, 72 hours with compound, Alamar blue 4 h
Procedure: as §1, §2

[10] = biological target: PLK2 (h) (Homo sapiens, UniProt Q9NYY3); assay: PLK2 human kinase inhibition, SPA; assay type: biochemical; settings: read-out: PLK2 pIC50 (converted)
Procedure: as §3, §4, §5
as §6, with “PLK2” for “PLK3”

[11] = biological target: PLK4 (h) (Homo sapiens, UniProt O00444); assay: PLK-4 human kinase inhibition, scintillation proximity assay (SPA); assay type: biochemical; settings: read-out: PLK4 pIC50 (converted)
Procedure: as §4, §5
(6.0 μCi/ml). After incubation of 60 minutes at room temperature, the reaction is stopped by addition of 40 μL of stop solution containing 8.7 mM EDTA, BSA 0.17%, 0.17% Triton X-100, 1.7 mg/ml SPA beads (GE-healthcare). The plate is centrifuged and read for Scintillation imaging on Leadseeker.

[12] = system: MDA-MB-231; assay: Cellular proliferation assay (Alamar blue), MDA-MB-231; assay type: cell-based; settings: Homo sapiens, 10% FCS, 72 hours with compound, Alamar blue 24 h, read-out: MDA/MB231 (cellular proliferation assay, Table 4) (converted)
Procedure: as §1, §2

PLK4 (h), sequence (O00444 whole entry): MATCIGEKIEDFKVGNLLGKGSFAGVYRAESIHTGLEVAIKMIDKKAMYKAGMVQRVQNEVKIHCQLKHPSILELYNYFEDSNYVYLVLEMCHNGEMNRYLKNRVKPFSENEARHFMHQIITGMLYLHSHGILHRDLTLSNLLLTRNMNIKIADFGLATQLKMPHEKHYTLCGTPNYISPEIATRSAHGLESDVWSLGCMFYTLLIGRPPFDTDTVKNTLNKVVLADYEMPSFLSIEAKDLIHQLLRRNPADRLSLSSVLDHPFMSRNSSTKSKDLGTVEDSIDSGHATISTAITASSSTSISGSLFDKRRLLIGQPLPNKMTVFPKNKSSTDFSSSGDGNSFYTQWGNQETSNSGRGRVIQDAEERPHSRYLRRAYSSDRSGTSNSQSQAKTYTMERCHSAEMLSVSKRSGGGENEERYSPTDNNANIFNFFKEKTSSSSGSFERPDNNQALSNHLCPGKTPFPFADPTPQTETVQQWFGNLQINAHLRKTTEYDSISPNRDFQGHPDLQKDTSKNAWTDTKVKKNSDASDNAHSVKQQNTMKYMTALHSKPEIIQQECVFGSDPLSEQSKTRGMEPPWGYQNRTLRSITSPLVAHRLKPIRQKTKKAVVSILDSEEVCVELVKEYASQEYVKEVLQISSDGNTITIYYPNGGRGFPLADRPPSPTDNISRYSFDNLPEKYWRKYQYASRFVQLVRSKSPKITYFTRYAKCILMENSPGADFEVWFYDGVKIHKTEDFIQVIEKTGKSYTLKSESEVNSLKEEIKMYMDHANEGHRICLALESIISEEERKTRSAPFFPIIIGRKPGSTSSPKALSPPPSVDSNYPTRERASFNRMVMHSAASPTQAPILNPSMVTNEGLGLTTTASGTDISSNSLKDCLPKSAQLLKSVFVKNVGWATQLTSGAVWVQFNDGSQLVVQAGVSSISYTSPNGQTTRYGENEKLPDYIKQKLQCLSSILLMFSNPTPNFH
CDK1/CyclinB (h), sequence (P06493 whole entry): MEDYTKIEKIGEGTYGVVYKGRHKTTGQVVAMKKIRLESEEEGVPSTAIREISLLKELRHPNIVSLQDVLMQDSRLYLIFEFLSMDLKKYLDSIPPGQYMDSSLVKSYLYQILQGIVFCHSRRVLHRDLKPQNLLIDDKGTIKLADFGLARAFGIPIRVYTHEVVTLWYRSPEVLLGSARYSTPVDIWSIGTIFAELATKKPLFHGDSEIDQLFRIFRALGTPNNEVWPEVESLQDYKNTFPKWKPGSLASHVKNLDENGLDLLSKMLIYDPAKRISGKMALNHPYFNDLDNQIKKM
CDK1/CyclinB (h), sequence (P14635 whole entry partner): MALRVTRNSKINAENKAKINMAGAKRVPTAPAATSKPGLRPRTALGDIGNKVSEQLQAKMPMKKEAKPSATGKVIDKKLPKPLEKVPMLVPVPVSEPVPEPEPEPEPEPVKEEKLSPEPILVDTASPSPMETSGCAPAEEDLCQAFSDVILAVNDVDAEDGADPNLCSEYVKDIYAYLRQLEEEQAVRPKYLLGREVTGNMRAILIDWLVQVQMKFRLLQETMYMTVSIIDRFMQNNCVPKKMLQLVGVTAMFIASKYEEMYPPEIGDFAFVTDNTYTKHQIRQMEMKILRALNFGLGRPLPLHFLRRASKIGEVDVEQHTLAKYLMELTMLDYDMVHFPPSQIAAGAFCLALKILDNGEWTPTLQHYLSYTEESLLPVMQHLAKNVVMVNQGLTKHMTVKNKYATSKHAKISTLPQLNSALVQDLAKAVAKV
AuroraB (h), sequence (Q96GD4 whole entry): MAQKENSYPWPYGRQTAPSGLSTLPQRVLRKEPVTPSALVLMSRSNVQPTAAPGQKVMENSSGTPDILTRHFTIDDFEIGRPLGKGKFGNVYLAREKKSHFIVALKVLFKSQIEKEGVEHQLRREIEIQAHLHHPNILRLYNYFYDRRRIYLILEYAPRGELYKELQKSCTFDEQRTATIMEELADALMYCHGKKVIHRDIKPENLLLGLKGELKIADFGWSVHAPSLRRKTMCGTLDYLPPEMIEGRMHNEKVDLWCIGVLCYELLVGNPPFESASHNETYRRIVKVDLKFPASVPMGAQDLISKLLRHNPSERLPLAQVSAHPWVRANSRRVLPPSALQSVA
PLK1 T210D (h), sequence (P53350 whole entry T210D): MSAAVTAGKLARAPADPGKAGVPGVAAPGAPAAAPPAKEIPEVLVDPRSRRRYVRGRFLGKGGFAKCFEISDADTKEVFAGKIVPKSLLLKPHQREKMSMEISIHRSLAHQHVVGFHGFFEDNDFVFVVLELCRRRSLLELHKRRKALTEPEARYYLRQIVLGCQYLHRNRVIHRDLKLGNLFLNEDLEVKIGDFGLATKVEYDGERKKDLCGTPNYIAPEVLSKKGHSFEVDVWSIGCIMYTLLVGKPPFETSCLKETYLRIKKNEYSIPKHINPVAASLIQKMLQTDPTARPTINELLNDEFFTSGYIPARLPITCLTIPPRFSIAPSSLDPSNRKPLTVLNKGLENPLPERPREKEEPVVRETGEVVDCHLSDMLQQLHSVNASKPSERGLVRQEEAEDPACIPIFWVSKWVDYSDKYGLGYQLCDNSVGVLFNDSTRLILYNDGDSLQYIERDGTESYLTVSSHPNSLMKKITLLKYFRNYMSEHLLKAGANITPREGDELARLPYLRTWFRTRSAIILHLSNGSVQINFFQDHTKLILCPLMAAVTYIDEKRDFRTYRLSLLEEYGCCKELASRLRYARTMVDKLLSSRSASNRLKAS
GSK3β (h), sequence (P49841 whole entry): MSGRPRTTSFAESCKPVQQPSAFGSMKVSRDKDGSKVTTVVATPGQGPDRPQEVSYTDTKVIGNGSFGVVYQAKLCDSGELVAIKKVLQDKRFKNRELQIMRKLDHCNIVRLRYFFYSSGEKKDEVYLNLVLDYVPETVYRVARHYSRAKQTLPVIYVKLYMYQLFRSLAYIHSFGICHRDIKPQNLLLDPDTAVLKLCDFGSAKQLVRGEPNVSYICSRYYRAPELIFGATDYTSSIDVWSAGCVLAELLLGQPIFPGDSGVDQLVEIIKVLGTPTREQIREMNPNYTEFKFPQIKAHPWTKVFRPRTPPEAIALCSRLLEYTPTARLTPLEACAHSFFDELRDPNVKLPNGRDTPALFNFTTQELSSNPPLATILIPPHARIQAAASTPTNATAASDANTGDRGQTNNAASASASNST
PLK2 (h), sequence (Q9NYY3 whole entry): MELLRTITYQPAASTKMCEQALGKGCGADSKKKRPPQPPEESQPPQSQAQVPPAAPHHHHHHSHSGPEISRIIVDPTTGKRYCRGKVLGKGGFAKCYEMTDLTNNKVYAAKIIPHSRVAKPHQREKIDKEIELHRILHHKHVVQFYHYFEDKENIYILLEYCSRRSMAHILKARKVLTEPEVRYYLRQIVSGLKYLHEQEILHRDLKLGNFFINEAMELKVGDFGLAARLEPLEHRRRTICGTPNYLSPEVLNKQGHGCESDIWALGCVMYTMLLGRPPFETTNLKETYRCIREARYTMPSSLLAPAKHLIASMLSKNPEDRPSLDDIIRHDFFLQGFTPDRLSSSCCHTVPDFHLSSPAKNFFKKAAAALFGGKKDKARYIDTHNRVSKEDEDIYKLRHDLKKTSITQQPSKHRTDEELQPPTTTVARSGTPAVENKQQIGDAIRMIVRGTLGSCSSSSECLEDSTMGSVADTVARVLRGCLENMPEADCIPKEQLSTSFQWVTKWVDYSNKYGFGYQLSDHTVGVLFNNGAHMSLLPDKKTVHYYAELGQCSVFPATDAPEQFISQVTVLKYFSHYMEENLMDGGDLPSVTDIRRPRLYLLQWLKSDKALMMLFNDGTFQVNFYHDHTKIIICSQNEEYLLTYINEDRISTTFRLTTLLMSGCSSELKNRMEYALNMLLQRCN
PLK3 (h), sequence (Q9H4B4 whole entry): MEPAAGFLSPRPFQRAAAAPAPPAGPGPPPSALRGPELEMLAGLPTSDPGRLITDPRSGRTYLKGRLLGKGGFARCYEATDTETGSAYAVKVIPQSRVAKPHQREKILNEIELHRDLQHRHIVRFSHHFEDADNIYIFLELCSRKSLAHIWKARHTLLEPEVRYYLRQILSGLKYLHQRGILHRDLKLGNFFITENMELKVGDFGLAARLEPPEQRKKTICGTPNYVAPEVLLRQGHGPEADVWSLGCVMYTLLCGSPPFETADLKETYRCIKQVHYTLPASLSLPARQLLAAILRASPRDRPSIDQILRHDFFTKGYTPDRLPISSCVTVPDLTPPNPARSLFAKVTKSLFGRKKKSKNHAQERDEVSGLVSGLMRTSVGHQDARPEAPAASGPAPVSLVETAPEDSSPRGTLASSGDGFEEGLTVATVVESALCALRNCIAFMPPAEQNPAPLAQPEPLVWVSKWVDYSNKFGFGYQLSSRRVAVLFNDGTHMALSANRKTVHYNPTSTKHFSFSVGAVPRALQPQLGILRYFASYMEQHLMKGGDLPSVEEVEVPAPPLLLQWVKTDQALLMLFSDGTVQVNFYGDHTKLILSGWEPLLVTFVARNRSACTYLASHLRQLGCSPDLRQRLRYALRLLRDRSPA

IC50 [1] [µM]	IC50 [2] [µM]	IC50 [3] [µM]	IC50 [4] [µM]	IC50 [5] [µM]	IC50 [6] [µM]	IC50 [7] [µM]	IC50 [8] [µM]	IC50 [9] [µM]	IC50 [10] [µM]	IC50 [11] [µM]	IC50 [12] [µM]	SMILES
> 10	> 10	> 10	> 10	4.68	4.68	0.309	> 10	7.94	3.63	0.363	> 10	COc1cc2cc(c1OC)CNC(=O)[C@H](CO)NCc1cccc(c1)-c1ccnc(n1)N2 [Compound 8]
2.63	> 10		5.62				> 10	> 10		1.58	> 10	O=C1NCCCNCc2ccc(cc2)-c2ccnc(n2)Nc2ccc(N3CCOCC3)c(c2)CN2CCC1CC2 [Compound 69]
5.89	> 10	> 10	> 10	> 10	> 10	2.95	> 10	4.79	> 10	5.89	> 10	COc1ccc2cc1CN1CCC(CC1)C(=O)N(C)CCCN(C)c1ccc(cn1)-c1ccnc(n1)N2 [Compound 85]
8.71	> 10	4.68	4.57	> 10	> 10	0.417	6.03	1.7	> 10	0.646	5.37	CC1(C)NCc2cc(ccc2N2CCOCC2)Nc2nccc(n2)-c2cccc(c2)OCCCNC1=O [Compound 90]
> 10	> 10	> 10	> 10	> 10	> 10	4.68	7.24	3.63	> 10	1.12	10	O=C1NCCCOc2cccc(c2)-c2ccnc(n2)Nc2ccc(N3CCOCC3)c(c2)CN2CCC1CC2 [Compound 93]
> 10	> 10	> 10	6.92	> 10	> 10	0.417	7.76	6.92	> 10	3.63	> 10	O=C1NCCCOc2cccc(c2)-c2ccnc(n2)Nc2ccc(N3CCOCC3)c(c2)CN2C[C@H](O)C[C@@H]12 [Compound 99]
> 10			4.68				> 10	0.316			> 10	COc1ccc2cc1CN1CCN(CC1)CC(=O)N(C)CCCN(C)c1ccc(cn1)-c1ccnc(n1)N2 [Compound 148]
> 10	> 10		> 10				> 10	> 10		> 10	> 10	COc1ccc2cc1CNCCCNC(=O)[C@@H]1C[C@@H](O)CN1Cc1cc(ccc1N1CCOCC1)Nc1nccc-2n1 [Compound 176]

SMILES	IC50 [1] [µM]	IC50 [2] [µM]	IC50 [3] [µM]	IC50 [4] [µM]	IC50 [5] [µM]	IC50 [6] [µM]	IC50 [7] [µM]	IC50 [8] [µM]	IC50 [9] [µM]	IC50 [10] [µM]	IC50 [11] [µM]	IC50 [12] [µM]
CN1CCNC(=O)[C@H](CO)NCc2cc(cc(N3CCOCC3)c2)Nc2nccc(n2)-c2ccc(cc2)C1 [Compound 108]	> 10	> 10	> 10	8.91	> 10	6.03	6.61	> 10	8.32	> 3.02	0.603	> 10
CN1CCCNC(=O)[C@H](CO)NCc2cc(Br)cc(c2)Nc2nccc(n2)-c2ccc(cc2)C1 [Compound 110]		> 10	> 10	8.51	> 10	2.57	6.46	5.5	> 10	> 10	0.759	
CN1CCNC(=O)[C@H](CO)NCc2cc(Br)cc(c2)Nc2nccc(n2)-c2ccc(cc2)C1 [Compound 121]	6.03			7.24				10	1.91			7.76
O=C1NCCNCc2ccc(cc2)-c2ccnc(n2)Nc2ccc(N3CCOCC3)c(c2)CN2C[C@H](O)C[C@@H]12 [Compound 166]		> 10		> 3.02				> 10	> 10		3.55	> 10
O=C1NCCCNCc2ccc(cc2)-c2ccnc(n2)Nc2ccc(N3CCOCC3)c(c2)CN2CCC[C@@H]12 [Compound 172]		> 10		4.79				> 10	> 10		5.37	> 10
